For 13 compounds, MIC results are on record in US10160726B2, “Quinolone derivatives as antibacterials” (priority 2014, dated 2018).

Holding throughout (type): cell-based
In test [1] the test system is E. coli ATCC 25922 (NB27001). The test can be described thus: MIC, broth microdilution (CLSI). The note with it: Escherichia coli, ATCC25922; E. coli ATCC 25922; 35° C., 20 hours; read-out: Antibacterial activity (MIC) NB27001.
In test [2] the test system is P. aeruginosa NB52023 (efflux deficient K1542, ΔmexX ΔmexB). The test can be described thus: microbe, parasite or virus in culture. As to conditions: Pseudomonas aeruginosa, 20 h, read-out: Antibacterial activity (MIC) NB52023.
The test system of test [3] is S. aureus NB01006-AVR005 (gyrA S84L, grlA S80F, grlB E471K). As to the kind of experiment: microbe, parasite or virus in culture. The note with it: Staphylococcus aureus, 20 h, read-out: Antibacterial activity (MIC) NB01006-AVR005.
Test [4] relates to E. coli NB27177 (efflux deficient CGSC 11430, ΔtolC732::kan). As to the kind of experiment: microbe, parasite or virus in culture. The note with it: Escherichia coli, 20 h, read-out: Antibacterial activity (MIC) NB27177.
Test [5] relates to P. aeruginosa NB52023-CDK0006 (gyrA T83I, parC S87L). As to the kind of experiment: microbe, parasite or virus in culture. The note with it: Pseudomonas aeruginosa, 20 h, read-out: Antibacterial activity (MIC) NB52023-CDK0006.
The test system of test [6] is P. aeruginosa NB52019 (wild-type PAO1). As to the kind of experiment: MIC, broth microdilution (CLSI). As to conditions: Pseudomonas aeruginosa, read-out: Antibacterial activity (MIC) NB52019.
Test [7] deals with S. aureus ATCC 29213 (NB01001). As to the kind of experiment: MIC, broth microdilution (CLSI). As to conditions: Staphylococcus aureus, ATCC29213; S. aureus ATCC 29213; 35° C., 20 hours; read-out: Antibacterial activity (MIC) NB01001.
Setting [8] is: P. aeruginosa wild-type PAO1, 35° C., 20 hours.

SMILES strings stand for the structures. Values after ≈ are worked out from the molar mass of the structure shown. Where two headings read alike, the source gives them in different places.

For `Cc1c(C#N)c2cc(F)c(N3CC[C@@H]([C@H](C)N)C3)c(C)c2n(C2CC2)c1=O` [Example 28, 7-((R)-3-((S)-1-aminoethyl)pyrrolidin-1-yl)-1-cyclopropyl-6-fluoro-3,8-dimethyl-2-oxo-1,2-dihydroquinoline-4-carbonitrile], the MIC in test [1] is 2 µg/mL (≈ 5.43 µM); in test [2] it was 2 µg/mL (≈ 5.43 µM); in test [3], less than 0.03 µg/mL; in test [4], less than 0.03 µg/mL; in test [5], 0.5 µg/mL (≈ 1.36 µM); in test [6] (PAO1, 20 h), 16 µg/mL (≈ 43.4 µM). Further, the MIC in test [7] is less than 0.03 µg/mL.
Take `COc1c(C)c(=O)n(C2CC2)c2c(C)c(-c3ccc(N)nc3)ccc12` [Example 70, 7-(6-aminopyridin-3-yl)-1-cyclopropyl-4-methoxy-3,8-dimethylquinolin-2(1H)-one]: the MIC in test [1] is 32 µg/mL (≈ 95.4 µM); in test [2], greater than 32 µg/mL; in test [3], 4 µg/mL (≈ 11.9 µM); in test [4] it was 2 µg/mL (≈ 5.96 µM); in test [5], greater than 32 µg/mL; in test [6] (PAO1, 20 h) it was 32 µg/mL (≈ 95.4 µM). Besides, in test [7], the MIC came out at 16 µg/mL (≈ 47.7 µM).
In the case of `N#Cc1c(N2CC[C@H](N)C2)c(F)cc2c(CN)cc(=O)n(C3CC3)c12` [Example 114, (S)-4-(aminomethyl)-7-(3-aminopyrrolidin-1-yl)-1-cyclopropyl-6-fluoro-2-oxo-1,2-dihydroquinoline-8-carbonitrile], the MIC turned out to be 2 µg/mL (≈ 5.86 µM) in test [1]; 2 µg/mL (≈ 5.86 µM) in test [2]; 32 µg/mL (≈ 93.7 µM) in test [3]; 0.5 µg/mL (≈ 1.46 µM) in test [4]; 4 µg/mL (≈ 11.7 µM) in test [5]; 16 µg/mL (≈ 46.9 µM) in test [6] (PAO1, 20 h). For the same compound, the MIC in test [7] worked out at 16 µg/mL (≈ 46.9 µM).
Regarding `CNCc1cc(=O)n(C2CC2)c2c(C)c(N3CCC(CN)C3)c(F)cc12.O=C(O)C(F)(F)F` (stereo not shown) [Example 88, 7-(3-(aminomethyl)pyrrolidin-1-yl)-1-cyclopropyl-6-fluoro-8-methyl-4-((methylamino)methyl)quinolin-2(1H)-one TFA salt], the MIC in test [1] worked out at 4 µg/mL; in test [2] it was 2 µg/mL; in test [3], 2 µg/mL; in test [4], 0.25 µg/mL; in test [5] it was 4 µg/mL; in test [6] (setting [8]), 16 µg/mL. For the same compound, in test [7], the MIC turned out to be 1 µg/mL.
As for `Cc1c(N2CC[C@H](O)C2)c(F)cc2c(OCCN(C)C)cc(=O)n(C3CC3)c12` [Example 55, (S)-1-cyclopropyl-4-(2-(dimethylamino)ethoxy)-6-fluoro-7-(3-hydroxypyrrolidin-1-yl)-8-methylquinolin-2(1H)-one], the MIC is 8 µg/mL (≈ 20.5 µM) in test [1]; 32 µg/mL (≈ 82.2 µM) in test [2]; 0.5 µg/mL (≈ 1.28 µM) in test [3]; 0.125 µg/mL (≈ 0.321 µM) in test [4]; 32 µg/mL (≈ 82.2 µM) in test [5]; greater than 32 µg/mL in test [6] (PAO1, 20 h). Besides, in test [7], the MIC is 0.5 µg/mL (≈ 1.28 µM).
Consider `CC(=O)NCc1cc(=O)n(C2CC2)c2c(C)c(N3CC[C@@H]([C@H](C)N)C3)c(F)cc12` [Example 46, N-((7-((R)-3-((S)-1-aminoethyl)pyrrolidin-1-yl)-1-cyclopropyl-6-fluoro-8-methyl-2-oxo-1,2-dihydroquinolin-4-yl)methyl)acetamide], for which the MIC in test [1] is 32 µg/mL (≈ 79.9 µM); in test [2] it was greater than 32 µg/mL; in test [3], 2 µg/mL (≈ 4.99 µM); in test [4] it was 2 µg/mL (≈ 4.99 µM); in test [5] it was greater than 32 µg/mL; in test [6] (PAO1, 20 h), 32 µg/mL (≈ 79.9 µM). Besides, the MIC in test [7] was 8 µg/mL (≈ 20 µM).
`Cc1c(N2CC[C@@H]([C@H](C)N)C2)c(F)c(F)c2ccc(=O)n(C3CC3)c12.O=C(O)C(F)(F)F` [Example 106, 7-((R)-3-((S)-1-aminoethyl)pyrrolidin-1-yl)-1-cyclopropyl-5,6-difluoro-8-methyl quinolin-2(1H)-one TFA]: the MIC in test [1] is 0.125 µg/mL; in test [2] it was 0.5 µg/mL; in test [3] it was 0.015 µg/mL; in test [4], less than 0.03 µg/mL; in test [5], 1 µg/mL; in test [6] (setting [8]), 2 µg/mL. Moreover, the MIC in test [7] is 0.015 µg/mL.
With `Cc1c(N2CC[C@@H]([C@H](C)N)C2)c(F)cc2c(-c3cc(F)c(O)c(F)c3)cc(=O)n(C3CC3)c12` [Example 20, 7-((R)-3-((S)-1-aminoethyl)pyrrolidin-1-yl)-1-cyclopropyl-4-(3,5-difluoro-4-hydroxyphenyl)-6-fluoro-8-methylquinolin-2(1H)-one], the MIC was 32 µg/mL (≈ 69.9 µM) in test [1]; 32 µg/mL (≈ 69.9 µM) in test [2]; 0.25 µg/mL (≈ 0.546 µM) in test [3]; 0.125 µg/mL (≈ 0.273 µM) in test [4]; 16 µg/mL (≈ 35 µM) in test [5]; greater than 32 µg/mL in test [6] (PAO1, 20 h). Besides, the MIC in test [7] is 0.5 µg/mL (≈ 1.09 µM).
In the case of `COC(=O)C#Cc1cc(=O)n(C2CC2)c2c(C)c(N3CC[C@@H]([C@H](C)N)C3)c(F)cc12` [Example 26, Methyl 3-(7-((R)-3-((S)-1-aminoethyl)pyrrolidin-1-yl)-1-cyclopropyl-6-fluoro-8-methyl-2-oxo-1,2-dihydroquinolin-4-yl)propiolate], the MIC in test [1] is 32 µg/mL (≈ 77.8 µM); in test [2], 16 µg/mL (≈ 38.9 µM); in test [3], 0.25 µg/mL (≈ 0.608 µM); in test [4], 1 µg/mL (≈ 2.43 µM); in test [5], 32 µg/mL (≈ 77.8 µM); in test [6] (PAO1, 20 h), greater than 32 µg/mL. Further, the MIC in test [7] is 1 µg/mL (≈ 2.43 µM).
For the compound `Cc1c(N2CCC(F)(CN)C2)c(F)cc2c(CN)cc(=O)n(C3CC3)c12` (stereo not shown) [Example 81.33, 4-(aminomethyl)-7-(3-(aminomethyl)-3-fluoropyrrolidin-1-yl)-1-cyclopropyl-6-fluoro-8-methylquinolin-2(1H)-one], the MIC was determined as 0.5 µg/mL (≈ 1.38 µM) in test [1]; 0.5 µg/mL (≈ 1.38 µM) in test [2]; 1 µg/mL (≈ 2.76 µM) in test [3]; 0.06 µg/mL (≈ 0.166 µM) in test [4]; 1 µg/mL (≈ 2.76 µM) in test [5]; 2 µg/mL (≈ 5.52 µM) in test [6] (PAO1, 20 h). For the same compound, in test [7], the MIC is 0.5 µg/mL (≈ 1.38 µM).
With `Cc1c(N2CC[C@@H]([C@H](C)N)C2)c(F)cc2c(OCCCC#N)cc(=O)n(C3CC3)c12` [Example 57, 4-((7-((R)-3-((S)-1-aminoethyl)pyrrolidin-1-yl)-1-cyclopropyl-6-fluoro-8-methyl-2-oxo-1,2-dihydroquinolin-4-yl)oxy)butanenitrile], the MIC is 32 µg/mL (≈ 77.6 µM) in test [1]; 16 µg/mL (≈ 38.8 µM) in test [2]; 0.25 µg/mL (≈ 0.606 µM) in test [3]; 0.25 µg/mL (≈ 0.606 µM) in test [4]; greater than 32 µg/mL in test [5]; greater than 32 µg/mL in test [6] (PAO1, 20 h). Also, the MIC in test [7] was 0.25 µg/mL (≈ 0.606 µM).
On to `Cl.NCc1c(N2CCC(F)(CN)C2)c(F)cc2ccc(=O)n(C3CC3)c12` (stereo not shown) [Example 111, 8-(aminomethyl)-7-(3-(aminomethyl)-3-fluoropyrrolidin-1-yl)-1-cyclopropyl-6-fluoroquinolin-2(1H)-one HCl salt], for which the MIC in test [1] was 8 µg/mL; in test [2], 8 µg/mL; in test [3], 8 µg/mL; in test [4], 2 µg/mL; in test [5], 16 µg/mL; in test [6] (setting [8]), greater than 32 µg/mL. For the same compound, the MIC in test [7] was determined as 8 µg/mL.
As to `Cc1c(N2CC[C@H](O)C2)c(F)cc2c(CN)cc(=O)n(C3CC3)c12` [Example 81.32, (S)-4-(aminomethyl)-1-cyclopropyl-6-fluoro-7-(3-hydroxypyrrolidin-1-yl)-8-methylquinolin-2(1H)-one], the MIC in test [1] was 0.5 µg/mL (≈ 1.51 µM); in test [2] it was 0.25 µg/mL (≈ 0.754 µM); in test [3], 1 µg/mL (≈ 3.02 µM); in test [4] it was less than 0.03 µg/mL; in test [5], 1 µg/mL (≈ 3.02 µM); in test [6] (PAO1, 20 h), 4 µg/mL (≈ 12.1 µM). In addition, in test [7], the MIC is 0.5 µg/mL (≈ 1.51 µM).
